Measurements: patent publication US20260022142A1, “MACROCYCLIC IMMUNOMODULATORS” (Bristol-Myers Squibb Company, priority 2022, published 2026)
Numbered stars: 1 amine (or outer) side, 2 acyl side, 3 side chain; on linkers, the order of the positions; unused ones are H or OH. Bridge positions count the residues as written; N and C are the ends. Square brackets hold non-standard residues; d marks the D form. Peptide text beside a SMILES is read from it. * marks the point of attachment. ξ: configuration not given here. Phe(3-CF3) = N[C@@H](Cc1cccc(C(F)(F)F)c1)C(=O)O; Phe(4-COOH) = N[C@@H](Cc1ccc(C(=O)O)cc1)C(=O)O; Bip = N[C@@H](Cc1ccc(-c2ccccc2)cc1)C(=O)O; NH(CH2)14COOH = O=C(O)CCCCCCCCCCCCCCN*; Phe(3-Me) = Cc1cccc(C[C@H](N)C(=O)O)c1; 1Nal = N[C@@H](Cc1cccc2ccccc12)C(=O)O; βAsp = O=C(O)[C@H](CC(=O)[*:2])N[*:1]; Val(3-OH) = CC(C)(O)[C@H](N)C(=O)O; Val(3-F) = CC(C)(F)[C@H](N)C(=O)O; hArg = N=C(N)NCCCC[C@H](N)C(=O)O; 4Pal = N[C@@H](Cc1ccncc1)C(=O)O; Cha = N[C@@H](CC1CCCCC1)C(=O)O; Cit = NC(=O)NCCC[C@H](N)C(=O)O; NMeN = CN[C@@H](CC(N)=O)C(=O)O; Thr(3ξ) = CC(O)[C@H](N)C(=O)O; Carboxymethyl = O=C(O)C*; Orn = NCCC[C@H](N)C(=O)O; Aun = NCCCCCCCCCCC(=O)O; Dab = NCC[C@H](N)C(=O)O; Dap = NC[C@H](N)C(=O)O; AEEA = NCCOCCOCC(=O)O; Piv = CC(C)(C)C(=O)*

Biological target: T1, PD-1/PD-L1 interaction (PE-labeled human PD-L1-Ig binding to Jurkat cell line over-expressing human PD-1) (Homo sapiens, UniProt Q15116)
T1 construct: expressed in transfected cells; host or cells: Jurkat
T1 sequence (Q15116 25-288): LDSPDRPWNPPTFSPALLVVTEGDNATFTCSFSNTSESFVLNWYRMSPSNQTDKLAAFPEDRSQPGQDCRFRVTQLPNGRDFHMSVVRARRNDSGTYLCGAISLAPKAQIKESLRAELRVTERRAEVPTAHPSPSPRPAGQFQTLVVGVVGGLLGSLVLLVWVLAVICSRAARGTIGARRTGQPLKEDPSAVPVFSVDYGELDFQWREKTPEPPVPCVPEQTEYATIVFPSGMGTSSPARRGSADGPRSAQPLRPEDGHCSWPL
Test: Jurkat-PD-1 Cell Binding High-Content Screening Assay (CBA)
Type: cell-based
Settings: Jurkat cell line over-expressing human PD-1; PE-labeled PD-L1-Ig 20 nM final; read-out: Jurkat hPD1-PDL1 IC50
Procedure, shortened: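 Jurkat cells stably over-expressing human PD-1 were seeded in DMEM with 10% fetal calf serum and pre-incubated with compound for 2 h at 37° C. PE-labeled human PD-L1-Ig was then added at 20 nM final for 1 hour, after which cells were fixed with paraformaldehyde, Hoechst-stained and imaged by high-content microscopy.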

IC50 [nM] | Structure (SMILES)
9.2 | CC(C)C[C@H]1NC(=O)[C@H](CCCN)NC(=O)[C@H](C(C)C)NC(=O)[C@H](Cc2ccc(-c3ccccc3)cc2)NC(=O)[C@H](C(C)C)NC(=O)[C@H](Cc2c[nH]c3ccccc23)NC(=O)[C@H](CC(=O)O)NC(=O)[C@H](Cc2ccc(OCC(=O)O)cc2)NC(=O)[C@H](CN)NC(=O)CSC[C@@H](C(=O)N[C@@H](CCN)C(=O)NCCCCCCCCCCC(=O)O)NC(=O)[C@H](CCN)NC(=O)[C@H](C(C)O)NC(=O)[C@H](CC2CCCCC2)NC(=O)[C@H](CCN)NC1=O (stereo partly drawn) [Compound 3676] ({CH2CO}-[Dap]Y(Carboxymethyl)DWV[Bip]V[Orn][dL][Dab][Cha][Thr(3ξ)][Dab]C[Dab][Aun]-OH; thioether N-14)
5.1 | Cc1cccc(C[C@@H]2NC(=O)[C@H](CC(=O)O)NC(=O)[C@H](Cc3ccc(O)cc3)NC(=O)[C@H](CCCNC(=N)N)NC(=O)CSC[C@@H](C(=O)N[C@@H](CCN)C(=O)NCCOCCOCC(=O)NCCCCCCCCCCC(=O)O)NC(=O)[C@H](CO)NC(=O)[C@H](C(C)(C)O)NC(=O)[C@H](CC3CCCCC3)NC(=O)[C@H](CCN)NC(=O)[C@@H](CC(C)C)NC(=O)[C@H](CCCN)NC(=O)[C@H](Cc3ccc(OCC(=O)O)cc3)NC(=O)[C@H](Cc3ccc(-c4ccccc4)cc3)NC(=O)[C@H](Cc3ccc(OCC(=O)O)cc3)NC2=O)c1 [Compound 2248] ({CH2CO}-RYD[Phe(3-Me)]Y(Carboxymethyl)[Bip]Y(Carboxymethyl)[Orn][dL][Dab][Cha][Val(3-OH)]SC[Dab][AEEA][Aun]-OH; thioether N-14)
22 | CCC(C)[C@@H]1NC(=O)[C@H](Cc2ccc(-c3ccccc3)cc2)NC(=O)[C@H](C(C)C)NC(=O)[C@H](Cc2cccc(C)c2)NC(=O)[C@H](CC(=O)O)NC(=O)[C@H](Cc2ccc(OCC(=O)O)cc2)NC(=O)[C@H](C(C)O)NC(=O)CSC[C@@H](C(=O)N[C@H](CCN)C(=O)NCCCCCCCCCCCC(=O)O)NC(=O)[C@H](C(C)O)NC(=O)[C@H](C(C)C)NC(=O)[C@H](CC2CCCCC2)NC(=O)[C@H](CCN)NC(=O)[C@@H](CC(C)C)NC(=O)[C@H](CCCN)NC1=O (stereo partly shown) [Compound 3092]
272 | CC(C)C[C@H]1NC(=O)[C@H](CCCN)NC(=O)[C@H](Cc2ccc(C(=O)O)cc2)NC(=O)[C@H](Cc2ccc(-c3ccccc3)cc2)NC(=O)[C@H](Cc2ccc(C(=O)O)cc2)NC(=O)[C@H](Cc2cccc(C(F)(F)F)c2)NC(=O)[C@H](CC(=O)O)NC(=O)[C@H](Cc2ccc(OCC(=O)O)cc2)NC(=O)[C@H](Cc2cnc[nH]2)NC(=O)CSC[C@@H](C(=O)N[C@@H](CCN)C(=O)NCCOCCOCC(=O)N[C@@H](CC(=O)N[C@@H](CC(=O)O)C(=O)NCCCCCCCCCCCCCCC(=O)O)C(=O)O)NC(=O)[C@H](CCC(=O)O)NC(=O)[C@H](C(C)(C)O)NC(=O)[C@H](CC2CCCCC2)NC(=O)[C@H](CCN)NC1=O [Compound 3889] ({CH2CO}-HY(Carboxymethyl)D[Phe(3-CF3)][Phe(4-COOH)][Bip][Phe(4-COOH)][Orn][dL][Dab][Cha][Val(3-OH)]EC[Dab][AEEA][βAsp]D-{NH(CH2)14COOH}; thioether N-14)
5.7 | Cc1cccc(C[C@@H]2NC(=O)[C@H](CC(=O)O)NC(=O)[C@H](Cc3ccc(OCC(=O)O)cc3)NC(=O)[C@H](CCCCNC(=N)N)NC(=O)CSC[C@@H](C(=O)NCCOCCOCC(=O)N[C@@H](CCN)C(=O)NCCCCCCCCCCC(=O)O)NC(=O)[C@H](CCCN)NC(=O)[C@H](C(C)C)NC(=O)[C@H](CC3CCCCC3)NC(=O)[C@H](CCN)NC(=O)[C@@H](CC(C)C)NC(=O)[C@H](CCN)NC(=O)[C@H](C(C)C)NC(=O)[C@H](Cc3ccc(-c4ccccc4)cc3)NC(=O)[C@H](C(C)C)NC2=O)c1 [Compound 3251] ({CH2CO}-[hArg]Y(Carboxymethyl)D[Phe(3-Me)]V[Bip]V[Dab][dL][Dab][Cha]V[Orn]C[AEEA][Dab][Aun]-OH; thioether N-14)
8.7 | Cc1cccc(C[C@@H]2NC(=O)[C@H](CC(=O)O)NC(=O)[C@H](Cc3ccc(OCC(=O)O)cc3)NC(=O)[C@H](C(C)O)NC(=O)CSC[C@@H](C(=O)N(C)[C@@H](CC(N)=O)C(=O)NCCCCCCCCCCC(=O)O)NC(=O)[C@H](CCCCN)NC(=O)[C@H](C(C)C)NC(=O)[C@H](CC3CCCCC3)NC(=O)[C@H](CCN)NC(=O)[C@@H](CC(C)C)NC(=O)[C@H](CCCN)NC(=O)[C@H](C(C)C)NC(=O)[C@H](Cc3ccc(-c4ccccc4)cc3)NC(=O)[C@H](C(C)C)NC2=O)c1 (stereo partly drawn) [Compound 3340] ({CH2CO}-[Thr(3ξ)]Y(Carboxymethyl)D[Phe(3-Me)]V[Bip]V[Orn][dL][Dab][Cha]VKC[NMeN][Aun]-OH; thioether N-14)
11.2 | Cc1cccc(C[C@@H]2NC(=O)[C@H](CC(=O)O)NC(=O)[C@H](Cc3ccc(OCC(=O)O)cc3)NC(=O)[C@H](CN)NC(=O)CSC[C@@H](C(=O)N[C@@H](CCCCN)C(=O)NCCOCCOCC(=O)NCCCCCCCCCCC(=O)O)NC(=O)[C@H](CCCNC(=N)N)NC(=O)[C@H](C(C)C)NC(=O)[C@H](CC3CCCCC3)NC(=O)[C@H](CCN)NC(=O)[C@@H](CC(C)C)NC(=O)[C@H](CCCN)NC(=O)[C@H](CCCNC(N)=O)NC(=O)[C@H](Cc3ccc(-c4ccccc4)cc3)NC(=O)[C@H](C(C)C)NC2=O)c1 [Compound 2653] ({CH2CO}-[Dap]Y(Carboxymethyl)D[Phe(3-Me)]V[Bip][Cit][Orn][dL][Dab][Cha]VRCK[AEEA][Aun]-OH; thioether N-14)

The next lines start with the compound.

Structure (SMILES) | IC50 [nM]
Cc1cccc(C[C@@H]2NC(=O)[C@H](CC(=O)O)NC(=O)[C@H](Cc3ccc(OCC(=O)O)cc3)NC(=O)[C@H](CCCNC(=N)N)NC(=O)CSC[C@@H](C(=O)N[C@@H](CCNC(=O)C(C)(C)C)C(=O)NCCCCCCCCCCC(=O)O)NC(=O)[C@H]([C@@H](C)O)NC(=O)[C@H](C(C)C)NC(=O)[C@H](CC3CCCCC3)NC(=O)[C@H](CCN)NC(=O)[C@@H](CC(C)C)NC(=O)[C@H](CCCN)NC(=O)[C@H](Cc3ccc(OCC(=O)O)cc3)NC(=O)[C@H](Cc3ccc(-c4ccccc4)cc3)NC(=O)[C@H](Cc3ccc(O)cc3)NC2=O)c1 [Compound 2117] ({CH2CO}-RY(Carboxymethyl)D[Phe(3-Me)]Y[Bip]Y(Carboxymethyl)[Orn][dL][Dab][Cha]VTC[Dab](Piv)[Aun]-OH; thioether N-14) | 26.3
Cc1cccc(C[C@@H]2NC(=O)[C@H](CC(=O)O)NC(=O)[C@H](Cc3ccc(OCC(=O)O)cc3)NC(=O)[C@H](CN)NC(=O)CSC[C@@H](C(=O)N[C@@H](CCN)C(=O)NCCOCCOCC(=O)NCCCCCCCCCCC(=O)O)NC(=O)[C@H](CCCN)NC(=O)[C@H](C(C)C)NC(=O)[C@H](CC3CCCCC3)NC(=O)[C@H](CCN)NC(=O)[C@@H](CC(C)C)NC(=O)[C@H](CCCN)NC(=O)[C@H](Cc3ccncc3)NC(=O)[C@H](Cc3ccc(-c4ccccc4)cc3)NC(=O)[C@H](Cc3ccc(O)cc3)NC2=O)c1 [Compound 2053] ({CH2CO}-[Dap]Y(Carboxymethyl)D[Phe(3-Me)]Y[Bip][4Pal][Orn][dL][Dab][Cha]V[Orn]C[Dab][AEEA][Aun]-OH; thioether N-14) | 6.9
Cc1cccc(C[C@@H]2NC(=O)[C@H](CC(=O)O)NC(=O)[C@H](Cc3ccc(OCC(=O)O)cc3)NC(=O)[C@H](CCCNC(=N)N)NC(=O)CSC[C@@H](C(=O)N[C@@H](CCN)C(=O)NCCCCCCCCCCC(=O)O)NC(=O)[C@H](CCC(N)=O)NC(=O)[C@H](C(C)(C)F)NC(=O)[C@H](CC3CCCCC3)NC(=O)[C@H](CCN)NC(=O)[C@@H](CC(C)C)NC(=O)[C@H](CCCN)NC(=O)[C@H](Cc3ccc(OCC(=O)O)cc3)NC(=O)[C@H](Cc3ccc(-c4ccccc4)cc3)NC(=O)[C@H](Cc3ccc(OCC(=O)O)cc3)NC2=O)c1 [Compound 2145] ({CH2CO}-RY(Carboxymethyl)D[Phe(3-Me)]Y(Carboxymethyl)[Bip]Y(Carboxymethyl)[Orn][dL][Dab][Cha][Val(3-F)]QC[Dab][Aun]-OH; thioether N-14) | 2.1
Cc1cccc(C[C@@H]2NC(=O)[C@H](CC(=O)O)NC(=O)[C@H](Cc3ccc(OCC(=O)O)cc3)NC(=O)[C@H](CN)NC(=O)CSC[C@@H](C(=O)N[C@@H](C)C(=O)N[C@@H](CN)C(=O)NCCCCCCCCCCC(=O)O)NC(=O)[C@H]([C@@H](C)O)NC(=O)[C@H](C(C)C)NC(=O)[C@H](CC3CCCCC3)NC(=O)[C@H](Cc3cnc[nH]3)NC(=O)[C@@H](CC(C)C)NC(=O)[C@H](CCCN)NC(=O)[C@H](C(C)C)NC(=O)[C@H](Cc3ccc(-c4ccccc4)cc3)NC(=O)[C@H](C(C)C)NC2=O)c1 [Compound 1111] ({CH2CO}-[Dap]Y(Carboxymethyl)D[Phe(3-Me)]V[Bip]V[Orn][dL]H[Cha]VTCA[Dap][Aun]-OH; thioether N-14) | 64.2
CC(C)C[C@H]1NC(=O)[C@H](CCCN)NC(=O)[C@H](Cc2ccc(O)cc2)NC(=O)[C@H](Cc2ccc(-c3ccccc3)cc2)NC(=O)[C@H](C(C)C)NC(=O)[C@H](Cc2cccc3ccccc23)NC(=O)[C@H](CC(=O)O)NC(=O)[C@H](Cc2ccc(OCC(=O)O)cc2)NC(=O)[C@H](CN)NC(=O)CSC[C@@H](C(=O)N[C@@H](CCN)C(=O)NCCOCCOCC(=O)NCCCCCCCCCCC(=O)O)NC(=O)[C@H](CCCN)NC(=O)[C@H](C(C)C)NC(=O)[C@H](CC2CCCCC2)NC(=O)[C@H](CCN)NC1=O [Compound 1297] ({CH2CO}-[Dap]Y(Carboxymethyl)D[1Nal]V[Bip]Y[Orn][dL][Dab][Cha]V[Orn]C[Dab][AEEA][Aun]-OH; thioether N-14) | 24.6
CC[C@H](C)[C@@H]1NC(=O)[C@H](Cc2ccc(-c3ccccc3)cc2)NC(=O)[C@H](C(C)C)NC(=O)[C@H](Cc2cccc(C)c2)NC(=O)[C@H](CC(=O)O)NC(=O)[C@H](Cc2ccc(C(=O)O)cc2)NC(=O)[C@H](Cc2ccncc2)NC(=O)CSC[C@@H](C(=O)NCCOCCOCC(=O)N[C@@H](CCCN)C(=O)NCCCCCCCCCCC(=O)O)NC(=O)[C@H]([C@@H](C)O)NC(=O)[C@H](C(C)C)NC(=O)[C@H](CC2CCCCC2)NC(=O)[C@H](CCN)NC(=O)[C@@H](CC(C)C)NC(=O)[C@H](CCCN)NC1=O [Compound 1190] ({CH2CO}-[4Pal][Phe(4-COOH)]D[Phe(3-Me)]V[Bip]I[Orn][dL][Dab][Cha]VTC[AEEA][Orn][Aun]-OH; thioether N-14) | 24.8
